Key:
PDE5A1 = PDE5A1 (Homo sapiens, UniProt O76074)
[1] = system: arterioles and precapillary arteries; details: topically administered; increasing blood flow and tissue perfusion; cited from earlier work

| Molecule | inhibition of phosphodiesterase cGMP (in words) (PDE5A1) | vasokinetic action on arterioles and precapillary arteries (in words) [1] |
| --- | --- | --- |
| COc1ccc(-c2oc3c(CC=C(C)C)c(OCCO)cc(O)c3c(=O)c2OCCO)cc1 [Compound 1, 3,7-O-di-(2-hydroxyethyl)icaritin] | powerful inhibitors | – |
| COc1ccc(-c2oc3c(CC=C(C)C)c(OCCO)cc(O)c3c(=O)c2O[C@@H]2O[C@@H](C)[C@H](O)[C@@H](O)[C@H]2O)cc1 [Compound 2, 7-O-hydroxyethyl-icariside II] | powerful inhibitors | – |
| Visnadin | – | marked vasokinetic action |

Reference: patent US8211479B2, “Combinations of vasoactive substances with estrogens and their use in the treatment of female sexual dysfunctions” (Indena S.p.A., priority 2007, dated 2012)
